Experiments:
Experiment in all cases: relative viability (nuclei count vs DMSO), 5 days (fraction); higher = more cells survive
CUDC-101 + Navitoclax = compound: C#Cc1cccc(Nc2ncnc3cc(OC)c(OCCCCCCC(=O)NO)cc23)c1 [CUDC-101] + CC1(C)CCC(c2ccc(Cl)cc2)=C(CN2CCN(c3ccc(C(=O)NS(=O)(=O)c4ccc(N[C@H](CCN5CCOCC5)CSc5ccccc5)c(S(=O)(=O)C(F)(F)F)c4)cc3)CC2)C1 [Navitoclax] (partner 0.5 µM)
Outline: (§1)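 After 5 days of treatment, lung cancer cells in 1536-well plates were fixed and stained in a single step (final 0.05% Triton X-100, 1% formaldehyde, 1 ug/ml Hoechst) and their nuclei counted on 4× images. Treatment had been applied by pin tool the day after seeding as one drug alone or as a fixed anchor-drug dose with five library-drug doses (not always all listed) in √10 steps. Relative viability is the nuclei count of treated wells divided by that of vehicle wells, and values are medians of duplicate plates.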

NVP-TAE684 + Linsitinib = compound: COc1cc(N2CCC(N3CCN(C)CC3)CC2)ccc1Nc1ncc(Cl)c(Nc2ccccc2S(=O)(=O)C(C)C)n1 [NVP-TAE684] + C[C@]1(O)C[C@@H](c2nc(-c3ccc4ccc(-c5ccccc5)nc4c3)c3c(N)nccn32)C1 [Linsitinib] (partner 1 µM)
Outline: as §1

Vandetanib + Olaparib = compound: COc1cc2/c(=N/c3ccc(Br)cc3F)nc[nH]c2cc1OCC1CCN(C)CC1 [Vandetanib] + O=C(c1cc(Cc2n[nH]c(=O)c3ccccc23)ccc1F)N1CCN(C(=O)C2CC2)CC1 [Olaparib] (partner 8 µM)
Outline: as §1

NVP-TAE684 + AZD7762 = compound: COc1cc(N2CCC(N3CCN(C)CC3)CC2)ccc1Nc1ncc(Cl)c(Nc2ccccc2S(=O)(=O)C(C)C)n1 [NVP-TAE684] + NC(=O)Nc1cc(-c2cccc(F)c2)sc1C(=O)N[C@H]1CCCNC1 [AZD7762] (partner 0.2 µM)
Outline: as §1

NVP-TAE684 + OSI-027 = compound: COc1cc(N2CCC(N3CCN(C)CC3)CC2)ccc1Nc1ncc(Cl)c(Nc2ccccc2S(=O)(=O)C(C)C)n1 [NVP-TAE684] + COc1cccc2cc(-c3nc([C@H]4CC[C@H](C(=O)O)CC4)n4ncnc(N)c34)[nH]c12 [OSI-027] (partner 0.5 µM)
Outline: as §1

| Cell Line | relative viability (CUDC-101 + Navitoclax; first compound 0.01 µM) | relative viability (CUDC-101 + Navitoclax; first compound 0.03162 µM) | relative viability (CUDC-101 + Navitoclax; first compound 0.1 µM) | relative viability (CUDC-101 + Navitoclax; first compound 0.3162 µM) | relative viability (CUDC-101 + Navitoclax; first compound 1 µM) | relative viability (NVP-TAE684 + Linsitinib; first compound 0.2 µM) | relative viability (NVP-TAE684 + Linsitinib; first compound 0.6325 µM) | relative viability (NVP-TAE684 + Linsitinib; first compound 2 µM) | relative viability (Vandetanib + Olaparib; first compound 0.02 µM) | relative viability (Vandetanib + Olaparib; first compound 0.06325 µM) | relative viability (Vandetanib + Olaparib; first compound 0.2 µM) | relative viability (Vandetanib + Olaparib; first compound 0.6325 µM) | relative viability (Vandetanib + Olaparib; first compound 2 µM) | relative viability (NVP-TAE684 + AZD7762; first compound 0.2 µM) | relative viability (NVP-TAE684 + AZD7762; first compound 0.6325 µM) | relative viability (NVP-TAE684 + AZD7762; first compound 2 µM) | relative viability (NVP-TAE684 + OSI-027; first compound 0.2 µM) | relative viability (NVP-TAE684 + OSI-027; first compound 0.6325 µM) | relative viability (NVP-TAE684 + OSI-027; first compound 2 µM) |
| --- | --- | --- | --- | --- | --- | --- | --- | --- | --- | --- | --- | --- | --- | --- | --- | --- | --- | --- | --- |
| BEN | 0.0901 | 0.0957 | 0.427 | 0.137 | 0.0346 | 0.804 | 0.904 | 0.848 | 1.21 | 1.02 | 1.03 | 1.04 | 1.08 | 0.794 | 0.615 | 0.6 | 0.27 | 0.311 | 0.265 |
| CAL-12T | 1.22 | 1.23 | 1.28 | 1.35 | 1.33 | 0.726 | 0.767 | 0.541 | 0.663 | 0.692 | 0.765 | 0.676 | 0.65 | 0.741 | 0.492 | 0.418 | 0.538 | 0.372 | 0.158 |
| COR-L23 | 1.08 | 1.07 | 0.907 | 1.09 | 0.444 | 0.871 | 0.937 | 0.419 | 0.327 | 0.343 | 0.379 | 0.379 | 0.347 |  |  |  | 0.818 | 0.804 | 0.316 |
| COR-L 105 | 0.866 | 0.755 | 0.739 | 0.64 | 0.264 | 0.915 |  | 0.625 | 0.639 | 0.606 | 0.756 | 0.67 | 0.811 |  |  |  | 0.636 | 0.441 | 0.268 |
| Calu-6 | 0.93 | 1.1 | 0.848 | 0.82 | 0.624 | 0.805 | 0.935 | 0.634 | 0.526 | 0.552 | 0.579 | 0.572 | 0.563 |  |  |  |  |  |  |
